What all share (type): functional
The test system of one assay is Clostridioides difficile. Nature of the assay: Antimicrobial activity against Clostridioides difficile ATCC 43255 under anaerobic condition for 42 to 48 hrs by agar dilution method. (In agar dilution the substance is mixed into plates at graded concentrations.)
A further assay relates to Staphylococcus aureus. Put plainly: Antimicrobial activity against Staphylococcus aureus ATCC 29213 after 20 hrs by broth microdilution method. To be noted: ATCC 29213, 20 h. For orientation: In broth dilution the organism is exposed to a series of concentrations in liquid medium.
For another assay, the system named is Streptococcus pneumoniae. Put plainly: Antimicrobial activity against Streptococcus pneumoniae ATCC 49619 after 20 hrs by broth microdilution method. To be noted: ATCC 49619, 20 h.
For another assay, the system named is Haemophilus influenzae. Nature of the assay: Antimicrobial activity against Haemophilus influenzae ATCC 49247 after 20 hrs by broth microdilution method. To be noted: ATCC 49247, 20 h.
The subject of a further assay is Enterococcus faecalis. Put plainly: Antimicrobial activity against Enterococcus faecalis ATCC 29212 after 20 hrs by broth microdilution method. Particulars: ATCC 29212, 20 h.

≈ marks a conversion by molar mass, not a printed value.

With `CCc1[nH]c(C(=O)N[C@@H]2CCN(c3nnc([C@@H](O)CO)s3)C[C@@H]2OC)nc1Cl`, the figures for the MIC with Clostridioides difficile and in the assay with Staphylococcus aureus were 0.125 µg/mL (≈ 0.29 µM) and 4 µg/mL (≈ 9.28 µM), respectively.

On to `CCc1[nH]c(C(=O)N[C@@H]2CCN(c3nnc(C(C)(C)O)s3)C[C@@H]2OC)nc1Cl`, for which the MIC against Clostridioides difficile came out at 0.06 µg/mL (≈ 0.14 µM); in the assay on Streptococcus pneumoniae, 0.25 µg/mL (≈ 0.583 µM); in the assay with Haemophilus influenzae, 0.5 µg/mL (≈ 1.17 µM); against Enterococcus faecalis, 0.25 µg/mL (≈ 0.583 µM); in the assay on Staphylococcus aureus, 0.25 µg/mL (≈ 0.583 µM).

`CCc1[nH]c(C(=O)N[C@@H]2CCN(c3nnc([C@H](C)O)s3)C[C@@H]2OC)nc1Cl`: the MIC is 0.125 µg/mL (≈ 0.301 µM) against Clostridioides difficile; 0.25 µg/mL (≈ 0.603 µM) against Streptococcus pneumoniae; 1 µg/mL (≈ 2.41 µM) in the assay with Haemophilus influenzae; 0.25 µg/mL (≈ 0.603 µM) against Enterococcus faecalis; 0.5 µg/mL (≈ 1.21 µM) in the assay with Staphylococcus aureus.

As to `CCc1[nH]c(C(=O)N[C@@H]2CCN(c3nnc([C@@H](C)O)s3)C[C@@H]2OC)nc1Cl`, the MIC in the assay with Clostridioides difficile amounted to 0.06 µg/mL (≈ 0.145 µM); against Streptococcus pneumoniae, 0.25 µg/mL (≈ 0.603 µM); in the assay on Haemophilus influenzae it was 1 µg/mL (≈ 2.41 µM); in the assay with Enterococcus faecalis, 0.25 µg/mL (≈ 0.603 µM); in the assay with Staphylococcus aureus, 0.5 µg/mL (≈ 1.21 µM).

In the case of `CCO[C@H]1CN(c2nnc(C(C)O)s2)CC[C@H]1NC(=O)c1nc(Cl)c(CC)[nH]1` (some centres undefined), the MIC against Clostridioides difficile came out at 0.03 µg/mL (≈ 0.0699 µM); in the assay with Streptococcus pneumoniae, 0.25 µg/mL (≈ 0.583 µM); against Haemophilus influenzae, 2 µg/mL (≈ 4.66 µM); against Enterococcus faecalis it was 0.25 µg/mL (≈ 0.583 µM); against Staphylococcus aureus, 0.5 µg/mL (≈ 1.17 µM).

Turning to `CCc1[nH]c(C(=O)N[C@@H]2CCN(c3nnc([C@@](C)(O)CO)s3)C[C@@H]2OC)nc1Cl`, the MIC is 0.06 µg/mL (≈ 0.135 µM) against Clostridioides difficile and 1 µg/mL (≈ 2.25 µM) against Staphylococcus aureus.

The values above are taken from ChEMBL document CHEMBL4020808, “Inhibitors of DNA Gyrase-GyrB Subunit and/or Topoisomerase IV-ParE Subunit May Treat Infectious Diseases Caused by Antibiotic-Resistant Bacteria” (2017).
